IC50 data for 7 compounds are collected here from patent US9850283B2, “Macrocyclic inhibitors of the PD-1/PD-L1 and CD80(B7-1)/PD-L1 protein/protein interactions” (BRISTOL-MYERS SQUIBB COMPANY, priority 2013, dated 2017).

Read-outs that look alike come from different tables or passages of the source. Positions of bridges follow the written chain, without caps; N, C: chain ends. Non-standard residues stand in square brackets, D forms with d. Residues, ends and D or L forms follow the SMILES beside them. Pro(trans-4-cHex) = O=C(O)[C@@H]1C[C@@H](C2CCCCC2)CN1; Pro(trans-4-Ph) = O=C(O)[C@@H]1C[C@@H](c2ccccc2)CN1; Pro(4R-Bn) = O=C(O)[C@@H]1C[C@@H](Cc2ccccc2)CN1; Phe(3-Cl) = N[C@@H](Cc1cccc(Cl)c1)C(=O)O; Hyp = O=C(O)[C@@H]1C[C@@H](O)CN1; NMeF = CN[C@@H](Cc1ccccc1)C(=O)O; NMeNle = CCCC[C@H](NC)C(=O)O; NMeA = CN[C@@H](C)C(=O)O; Orn = NCCC[C@H](N)C(=O)O; Dab = NCC[C@H](N)C(=O)O; Dap = NC[C@H](N)C(=O)O; Sar = CNCC(=O)O

For test [1], the target named is T1, LK35.2-hPD-L1 cells / PE-labeled PD-1-Ig (Homo sapiens, UniProt Q9NZQ7).
T1 construct: expressed in transfected cells; host or cells: LK35.2 mouse B cell line
T1 sequence (Q9NZQ7 19-290): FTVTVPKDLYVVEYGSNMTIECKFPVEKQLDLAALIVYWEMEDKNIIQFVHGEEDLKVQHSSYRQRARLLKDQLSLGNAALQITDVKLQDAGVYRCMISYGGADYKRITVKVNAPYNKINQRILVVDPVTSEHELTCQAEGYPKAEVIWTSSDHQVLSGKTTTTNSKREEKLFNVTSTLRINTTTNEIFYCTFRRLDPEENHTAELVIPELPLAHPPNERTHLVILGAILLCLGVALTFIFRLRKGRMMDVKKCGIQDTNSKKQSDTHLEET
Put plainly: LK35.2-hPD-L1 cell binding high-content screening assay. In kind it is cell-based. The method in brief:
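Binding of PE-conjugated human PD-1-Ig (1 nM final) to human PD-L1 stably expressed on a mouse B-cell line (LK35.2) was measured by high-content imaging after washes. Compound and labeled PD-1-Ig were co-incubated 1 h at 37 °C with cells in RPMI/10% FCS.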

The target in the next test is T2, Human PD-L1/PD-1 (Homo sapiens, UniProt Q9NZQ7).
T2 construct: made in house; host or cells: HEK293T
T2 sequence (Q9NZQ7 with tags, fused parts or gaps): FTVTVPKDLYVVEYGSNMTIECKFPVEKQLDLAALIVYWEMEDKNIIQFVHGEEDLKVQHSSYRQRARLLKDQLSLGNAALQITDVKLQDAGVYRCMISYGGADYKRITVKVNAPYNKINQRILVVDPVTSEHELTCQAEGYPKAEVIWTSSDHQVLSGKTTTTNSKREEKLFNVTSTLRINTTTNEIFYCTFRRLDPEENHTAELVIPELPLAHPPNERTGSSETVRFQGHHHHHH
As to the kind of experiment: HTRF PD-1-Ig/PD-L1-His binding assay (human PD-L1). The method in brief:
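Soluble PD-1-Ig binding to PD-L1-His measured by HTRF in dPBS with 0.1% BSA and 0.05% Tween-20. Detection used europium cryptate anti-Ig antibody (1 nM final) and APC anti-His antibody (20 nM final) added on top of the binding reaction.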
(TR-FRET usually uses a lanthanide donor and a delayed reading to cut background.)

The mark [2] stands for this setting: cell binding assay, cell line not given, cluster symbol, read-out: CBA IC50 cluster.
[3] abbreviates: cluster symbol, read-out: HTRF IC50 cluster.

For orientation: IC50 means the concentration at which inhibition is half-maximal. With `CCCC[C@H]1C(=O)N(C)[C@@H](CCCC)C(=O)N[C@@H](C)C(=O)N[C@H](C(=O)NCC(N)=O)CSCC(=O)N[C@@H](Cc2ccc(O)cc2)C(=O)N(C)[C@@H](C)C(=O)N[C@@H](CC(N)=O)C(=O)N2CCC[C@H]2C(=O)N[C@@H](Cc2cnc[nH]2)C(=O)N[C@@H](CCC(=O)O)C(=O)N2C[C@H](O)C[C@H]2C(=O)N[C@@H](Cc2c[nH]c3ccccc23)C(=O)N[C@@H](CCN)C(=O)N[C@@H](Cc2c[nH]c3ccccc23)C(=O)N1C` [Example 5036] ({CH2CO}-Y[NMeA]NPHE[Hyp]W[Dab]W[NMeNle][NMeNle]ACG-NH2; thioether N-14), the figures for the IC50 (in test [1] (setting [2]); at Human PD-L1/PD-1 (setting [3])) were 0.158 to 4.71 nM and 0.385 to 6.74 nM, respectively.
On the same counts, the results for `CCCC[C@H]1C(=O)N(C)[C@@H](CCCC)C(=O)N[C@@H](CCCN)C(=O)N[C@H](C(=O)NCC(N)=O)CSCC(=O)N[C@@H](Cc2ccc(O)cc2)C(=O)N(C)[C@@H](C)C(=O)N[C@@H](CC(N)=O)C(=O)N2CCC[C@H]2C(=O)N[C@@H](CN)C(=O)N[C@@H](CC(C)C)C(=O)N2C[C@H](Cc3ccccc3)C[C@H]2C(=O)N[C@@H](Cc2c[nH]c3ccccc23)C(=O)N[C@@H](CO)C(=O)N[C@@H](Cc2c[nH]c3ccccc23)C(=O)N1C` [Example 13009] ({CH2CO}-Y[NMeA]NP[Dap]L[Pro(4R-Bn)]WSW[NMeNle][NMeNle][Orn]CG-NH2; thioether N-14) are 0.158 to 4.71 nM and 0.385 to 6.74 nM.
On the same counts, the results for `CCCC[C@H]1C(=O)N(C)[C@@H](CCCC)C(=O)N[C@@H](CCC(=O)O)C(=O)N[C@H](C(=O)NCC(N)=O)CSCC(=O)N[C@@H](Cc2ccc(O)cc2)C(=O)N(C)[C@@H](C)C(=O)N[C@@H](CC(=O)O)C(=O)N2CCC[C@H]2C(=O)N[C@@H](Cc2c[nH]cn2)C(=O)N[C@@H](CCCCN)C(=O)N2C[C@H](c3ccccc3)C[C@H]2C(=O)N[C@@H](Cc2c[nH]c3ccccc23)C(=O)N[C@@H](CCCCN)C(=O)N[C@@H](Cc2c[nH]c3ccccc23)C(=O)N1C` [Example 14002] ({CH2CO}-Y[NMeA]DPHK[Pro(trans-4-Ph)]WKW[NMeNle][NMeNle]ECG-NH2; thioether N-14) are 0.158 to 4.71 nM and 0.385 to 6.74 nM.
`CCCC[C@H]1C(=O)N(C)[C@@H](CCCC)C(=O)N[C@@H](CCCNC(=N)N)C(=O)N[C@H](C(=O)NCC(N)=O)CSCC(=O)N[C@@H](Cc2ccccc2)C(=O)N(C)[C@@H](C)C(=O)N[C@@H](CC(N)=O)C(=O)N2CCC[C@H]2C(=O)N[C@@H](Cc2c[nH]cn2)C(=O)N[C@@H](CC(C)C)C(=O)N(C)CC(=O)N[C@@H](Cc2c[nH]c3ccccc23)C(=O)N[C@@H]([C@@H](C)O)C(=O)N[C@@H](Cc2c[nH]c3ccccc23)C(=O)N1C` [Example 5008] ({CH2CO}-F[NMeA]NPHL[Sar]WTW[NMeNle][NMeNle]RCG-NH2; thioether N-14): the 50% inhibitory concentration (IC50) amounted to 22.7 nM in test [1] (cell binding assay, cell line not given, value given instead of cluster, read-out: CBA IC50 value) and 18.1 nM at Human PD-L1/PD-1 (value given instead of cluster, read-out: HTRF IC50 value).
Take `CCCC[C@H]1C(=O)N(C)CC(=O)N[C@@H](CC(=O)O)C(=O)N[C@@H](C(C)C)C(=O)N(C)[C@@H](Cc2ccccc2)C(=O)N[C@@H](Cc2ccc(O)cc2)C(=O)N(C)CC(=O)N[C@@H](Cc2c[nH]c3ccccc23)C(=O)N[C@@H](Cc2ccc(O)cc2)C(=O)N[C@@H](CC(C)C)C(=O)N[C@H](C(=O)NCC(N)=O)CSCC(=O)N[C@@H](Cc2cccc(Cl)c2)C(=O)N(C)[C@@H](Cc2ccccc2)C(=O)N1C` [Example 3086] ({CH2CO}-[Phe(3-Cl)][NMeF][NMeNle][Sar]DV[NMeF]Y[Sar]WYLCG-NH2; thioether N-13): the IC50 was 0.158 to 4.71 nM in test [1] (cluster symbol, cell line of CBA not given (LK35.2-hPD-L1 or 293T-hPD-L1), read-out: CBA IC50 cluster) and 0.385 to 6.74 nM at Human PD-L1/PD-1 (setting [3]).
On to `CCCC[C@H]1C(=O)N(C)[C@@H](CCCC)C(=O)N[C@@H](CCN)C(=O)N[C@H](C(=O)NCC(N)=O)CSCC(=O)N[C@@H](Cc2ccc(O)cc2)C(=O)N(C)[C@@H](C)C(=O)N[C@@H](CC(N)=O)C(=O)N2CCC[C@H]2C(=O)N[C@@H](Cc2cnc[nH]2)C(=O)N[C@@H](CCC(N)=O)C(=O)N2C[C@H](O)C[C@H]2C(=O)N[C@@H](Cc2c[nH]c3ccccc23)C(=O)N[C@@H](CO)C(=O)N[C@@H](Cc2c[nH]c3ccccc23)C(=O)N1C` [Example 5041] ({CH2CO}-Y[NMeA]NPHQ[Hyp]WSW[NMeNle][NMeNle][Dab]CG-NH2; thioether N-14), for which the concentration for half-maximal inhibition (IC50) lay in the range of 0.158 to 4.71 nM in test [1] (setting [2]) and 6.76 to 30.3 nM at Human PD-L1/PD-1 (setting [3]).
On the same counts, the results for `CCCC[C@H]1C(=O)N(C)[C@@H](CCCC)C(=O)N[C@@H](CCCN)C(=O)N[C@H](C(=O)NCC(N)=O)CSCC(=O)N[C@@H](Cc2ccc(O)cc2)C(=O)N(C)[C@@H](C)C(=O)N[C@@H](CC(N)=O)C(=O)N2CCC[C@H]2C(=O)N[C@@H](CN)C(=O)N[C@@H](CC(C)C)C(=O)N2C[C@H](C3CCCCC3)C[C@H]2C(=O)N[C@@H](Cc2c[nH]c3ccccc23)C(=O)N[C@@H](CO)C(=O)N[C@@H](Cc2c[nH]c3ccccc23)C(=O)N1C` [Example 14007] ({CH2CO}-Y[NMeA]NP[Dap]L[Pro(trans-4-cHex)]WSW[NMeNle][NMeNle][Orn]CG-NH2; thioether N-14) are 0.158 to 4.71 nM and 0.385 to 6.74 nM.
